According to US8987473B2, “Ring-fused compound” (Sato Pharmaceutical Co., Ltd., priority 2011, dated 2015):

These compounds were tested against human URAT1 (Homo sapiens (Human), UniProt Q96S37) (assay: Test for uric acid transport inhibition using human URAT1 expression cell). Conditions: human URAT1 stable expression CHO cell; 14C-labeled uric acid 38 μM final concentration; incorporation at room temperature for 5 minutes; 100% window defined with benzbromarone 100 μM; read-out: URAT1 Inhibitory Activity (IC50).
Assay type: cell-based
Protocol: In this Example, it was evaluated whether the Example compound has the URAT1 inhibitory activity.
Human URAT1 full-length cDNA was introduced to an expression vector pcDNA5/FRT/V5-His TOPO (registered trademark) (Invitrogen Corporation). The obtained expression plasmid was introduced to Chinese hamster ovary cell (hereinafter referred to as the CHO cell) by the liposome method using Lipofectamine LTX (Invitrogen), and cultured in a selection medium including hygromycin, whereby to prepare human URAT1 stable expression cell.
The human URAT1 expression CHO cell was cultured using D-MEM/F-12 (1:1) mixed medium including 10% bovine fetal serum and hygromycin at 37° C. in the presence of 5% CO2. The cells were seeded onto a 96 well plate (Corning Incorporated) in 0.8×10^5 cells/well, and after 24 hours, the test for uric acid transport inhibition below was performed.
The medium was removed by aspiration, and then the cells were washed once with an assay buffer including 125 mM of sodium gluconate, 4.8 mM of potassium gluconate, 1.2 mM of potassium dihydrogen phosphate, 1.2 mM of magnesium sulfate, 1.3 mM of calcium gluconate and 5.6 mM of glucose. 50 μL assay buffer including the test compound in various concentrations was added, and further 50 μL assay buffer including a radioactive ligand (uric acid labeled with ^14C; 38 μM final concentration) was added, and incorporation reaction was performed at room temperature for 5 minutes. Immediately after completion of the reaction, the reaction mixture was washed twice with 100 μL ice-cold assay buffer, and 100 μL of 0.1 N sodium hydroxide was added. The reaction mixture was stirred to lyse the cells, and 4 mL Hionic-Fluor (Packard BioScience CO) was added, and then the radioactivity was measured with a liquid scintillation counter (Beckman Coulter, Inc. and Packard BioScience CO).
The radioactivity when each concentration of the test compound was added (uric acid incorporation activity, %) was calculated in which the difference of the radioactivity when the test compound was not added (DMSO added), and the radioactivity when a positive control compound, benzbromarone (known URAT1 inhibitor) was added in 100 μM, was taken as 100%, and the concentration of the test compound when the uric acid incorporation activity was inhibited to 50% (IC50) was obtained.

human URAT1, sequence (Q96S37 whole entry): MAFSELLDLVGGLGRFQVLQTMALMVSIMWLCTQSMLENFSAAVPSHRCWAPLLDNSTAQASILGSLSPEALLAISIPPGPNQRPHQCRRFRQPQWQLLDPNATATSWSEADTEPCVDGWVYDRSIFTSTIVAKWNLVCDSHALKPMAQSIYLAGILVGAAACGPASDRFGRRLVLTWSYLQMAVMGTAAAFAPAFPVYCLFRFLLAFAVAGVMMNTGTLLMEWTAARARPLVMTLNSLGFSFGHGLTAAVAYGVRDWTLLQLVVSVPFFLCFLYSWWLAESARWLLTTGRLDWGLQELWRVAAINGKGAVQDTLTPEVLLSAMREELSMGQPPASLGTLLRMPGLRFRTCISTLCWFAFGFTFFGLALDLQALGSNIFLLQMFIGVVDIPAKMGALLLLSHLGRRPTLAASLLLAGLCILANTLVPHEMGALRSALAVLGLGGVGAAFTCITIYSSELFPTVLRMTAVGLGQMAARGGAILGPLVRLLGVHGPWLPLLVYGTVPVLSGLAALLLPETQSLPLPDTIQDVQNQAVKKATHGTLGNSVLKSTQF

Compound	IC50
Cc1nn(Cc2csc3ccc(Cl)cc23)c2cc(CC(=O)O)ccc12 [Example 106, 2-{1-[(5-chlorobenzo[b]thiophene-3-yl)methyl]-3-methyl-1H-indazole-6-yl}acetic acid]	55 nM
Cc1nn(Cc2cccc3ccccc23)c2cc(CC(=O)O)ccc12 [Example 107, 2-[3-methyl-1-(naphthalene-1-ylmethyl)-1H-indazole-6-yl]acetic acid]	77 nM
Cc1cc(C)c(Cn2nc(C)c3ccc(CC(=O)O)cc32)c(C)c1 [Example 108, 2-[3-methyl-1-(2,4,6-trimethylbenzyl)-1H-indazole-6-yl]acetic acid]	94 nM
Cc1nn(Cc2c(Cl)cccc2C#N)c2cc(CC(=O)O)ccc12 [Example 109, 2-[1-(2-chloro-6-cyanobenzyl)-3-methyl-1H-indazole-6-yl]acetic acid]	335 nM
Cc1nn(Cc2cccc3cccnc23)c2cc(CC(=O)O)ccc12 [Example 115, 2-[3-methyl-1-(quinoline-8-ylmethyl)-1H-indazole-6-yl]acetic acid]	394 nM
Cc1cccc(C)c1Cn1nc(C)c2ccc(C(=O)O)cc21 [Example 117, 1-(2,6-dimethylbenzyl)-3-methyl-1H-indazole-6-carboxylic acid]	91 nM
Cc1nn(Cc2c(Cl)cccc2Cl)c2cc(C(=O)O)ccc12 [Example 119, 1-(2,6-dichlorobenzyl)-3-methyl-1H-indazole-6-carboxylic acid]	65 nM
Cc1nn(Cc2cccc(Cl)c2Cl)c2cc(C(=O)O)ccc12 [Example 120, 1-(2,3-dichlorobenzyl)-3-methyl-1H-indazole-6-carboxylic acid]	91 nM
Cc1nn(Cc2c(Cl)cccc2C#N)c2cc(CCC(=O)O)ccc12 [Example 125, 3-[1-(2-chloro-6-cyanobenzyl)-3-methyl-1H-indazole-6-yl]propionic acid]	72 nM
Cc1nn(Cc2c(Cl)cccc2Cl)c2cc(C(O)C(=O)O)ccc12 (stereo not shown) [Example 128, [1-(2,6-dichlorobenzyl)-3-methyl-1H-indazole-6-yl]hydroxyacetic acid]	576 nM
Cc1nn(Cc2c(Cl)cccc2Cl)c2cc(C(=O)CCC(=O)O)ccc12 [Example 130, 4-[1-(2,6-dichlorobenzyl)-3-methyl-1H-indazole-6-yl]-4-oxobutyric acid]	68 nM
Cc1nn(Cc2c(Cl)cccc2Cl)c2cc(CCC(N)=O)ccc12 [Example 132, 3-[1-(2,6-dichlorobenzyl)-3-methyl-1H-indazole-6-yl]propionamide]	186 nM
Cc1nn(Cc2c(Cl)cccc2Cl)c2cc(OCC(=O)O)ccc12 [Example 138, 2-[1-(2,6-dichlorobenzyl)-3-methyl-1H-indazole-6-yloxy]acetic acid]	916 nM
Cc1nn(Cc2c(Cl)cccc2Cl)c2cc(CS(=O)(=O)O)ccc12 [Example 139, [1-(2,6-dichlorobenzyl)-3-methyl-1H-indazole-6-yl]methanesulfonic acid]	653 nM
CCc1nn(Cc2c(C)cccc2C)c2cc(CC(=O)O)ccc12 [Example 142, 2-[1-(2,6-dimethylbenzyl)-3-ethyl-1H-indazole-6-yl]acetic acid]	50 nM
CCc1nn(Cc2c(Cl)cccc2Cl)c2cc(/C=C/C(=O)O)ccc12 [Example 146, (E)-3-[1-(2,6-dichlorobenzyl)-3-ethyl-1H-indazole-6-yl]acrylic acid]	53 nM
Cc1cccc(C)c1Cn1nc(C(C)C)c2ccc(CC(=O)O)cc21 [Example 147, 2-[1-(2,6-dimethylbenzyl)-3-isopropyl-1H-indazole-6-yl]acetic acid]	76 nM
O=C(O)Cc1ccc2c(C3CC3)nn(Cc3c(Cl)cccc3Cl)c2c1 [Example 148, 2-[3-cyclopropyl-1-(2,6-dichlorobenzyl)-1H-indazole-6-yl]acetic acid]	49 nM
Cc1cccc(C)c1Cn1nc(Cl)c2ccc(C(=O)O)cc21 [Example 149, 3-chloro-1-(2,6-dimethylbenzyl)-1H-indazole-6-carboxylic acid]	53 nM
N#Cc1nn(Cc2c(Cl)cccc2Cl)c2cc(C(=O)O)ccc12 [Example 150, 3-cyano-1-(2,6-dichlorobenzyl)-1H-indazole-6-carboxylic acid]	295 nM
Cc1nn(Cc2c(Cl)cccc2Cl)c2nc(Cc3nnn[nH]3)ccc12 [Example 152, 1-(2,6-dichlorobenzyl)-3-methyl-6-(1H-tetrazole-5-ylmethyl)-1H-pyrazolo[3,4-b]pyridine]	184 nM
Cc1nn(Cc2c(Cl)cccc2Cl)c2cc(C(=O)O)cnc12 [Example 153, 1-(2,6-dichlorobenzyl)-3-methyl-1H-pyrazolo[4,3-b]pyridine-6-carboxylic acid]	361 nM
Cc1nn(Cc2c(Cl)cccc2Cl)c2cc(-c3nnn[nH]3)cnc12 [Example 156, 1-(2,6-dichlorobenzyl)-3-methyl-6-(1H-tetrazole-5-yl)-1H-pyrazolo[4,3-b]pyridine]	438 nM
Cc1nn(Cc2cccc(Cl)c2Cl)c2cc(-c3nnn[nH]3)cnc12 [Example 158, 1-(2,3-dichlorobenzyl)-3-methyl-6-(1H-tetrazole-5-yl)-1H-pyrazolo[4,3-b]pyridine]	292 nM
Cc1cccc(Cl)c1Cn1nc(C)c2ncc(-c3nnn[nH]3)cc21 [Example 160, 1-(2-chloro-6-methylbenzyl)-3-methyl-6-(1H-tetrazole-5-yl)-1H-pyrazolo[4,3-b]pyridine]	124 nM
Cc1ccc(C)c(Cn2nc(C)c3ncc(-c4nnn[nH]4)cc32)c1 [Example 163, 1-(2,5-dimethylbenzyl)-3-methyl-6-(1H-tetrazole-5-yl)-1H-pyrazolo[4,3-b]pyridine]	113 nM
Cc1nn(Cc2c(Cl)cccc2C2CC2)c2cc(-c3nnn[nH]3)cnc12 [Example 164, 1-(2-chloro-6-cyclopropylbenzyl)-3-methyl-6-(1H-tetrazole-5-yl)-1H-pyrazolo[4,3-b]pyridine]	55 nM
CCc1nn(Cc2c(Cl)cccc2Cl)c2cc(C(=O)O)cnc12 [Example 167, 1-(2,6-dichlorobenzyl)-3-ethyl-1H-pyrazolo[4,3-b]pyridine-6-carboxylic acid]	80 nM

Stronger by IC50, values ahead:

IC50	Compound
41 nM	Cc1cccc(C)c1Cn1nc(C)c2ccc(CCC(=O)O)cc21 [Example 121, 3-[1-(2,6-dimethylbenzyl)-3-methyl-1H-indazole-6-yl]propionic acid]
10 nM	Cc1nn(Cc2c(Cl)cccc2Cl)c2cc(CCC(=O)O)ccc12 [Example 122, 3-[1-(2,6-dichlorobenzyl)-3-methyl-1H-indazole-6-yl]propionic acid]
31 nM	Cc1nn(Cc2csc3ccc(Cl)cc23)c2cc(CCC(=O)O)ccc12 [Example 124, 3-{1-[(5-chlorobenzo[b]thiophene-3-yl)methyl]-3-methyl-1H-indazole-6-yl}propionic acid]
16 nM	Cc1nn(Cc2c(Cl)cccc2Cl)c2cc(CCCC(=O)O)ccc12 [Example 133, 4-[1-(2,6-dichlorobenzyl)-3-methyl-1H-indazole-6-yl]butyric acid]
13 nM	Cc1nn(Cc2c(Cl)cccc2Cl)c2cc(Cc3nnn[nH]3)ccc12 [Example 134, 1-(2,6-dichlorobenzyl)-3-methyl-6-(1H-tetrazole-5-ylmethyl)-1H-indazole]
23 nM	Cc1nn(Cc2c(Cl)cccc2Cl)c2cc(CCc3nnn[nH]3)ccc12 [Example 135, 1-(2,6-dichlorobenzyl)-3-methyl-6-[2-(1H-tetrazole-5-yl)ethyl]-1H-indazole]
34 nM	Cc1nn(Cc2c(Cl)cccc2Cl)c2cc(Cc3n[nH]c(=O)o3)ccc12 [Example 136, 5-{[1-(2,6-dichlorobenzyl)-3-methyl-1H-indazole-6-yl]methyl}-1,3,4-oxadiazol-2(3H)-one]
10 nM	Cc1nn(Cc2c(Cl)cccc2Cl)c2cc(Cc3n[nH]c(=S)o3)ccc12 [Example 137, 5-{[1-(2,6-dichlorobenzyl)-3-methyl-1H-indazole-6-yl]methyl}-1,3,4-oxadiazol-2(3H)-thione]
24 nM	CCc1nn(Cc2c(Cl)cccc2Cl)c2cc(CC(=O)O)ccc12 [Example 140, 2-[1-(2,6-dichlorobenzyl)-3-ethyl-1H-indazole-6-yl]acetic acid]
35 nM	CCc1nn(Cc2c(C)cccc2C)c2cc(C(=O)O)ccc12 [Example 143, 1-(2,6-dimethylbenzyl)-3-ethyl-1H-indazole-6-carboxylic acid]
42 nM	CCc1nn(Cc2c(Cl)cccc2Cl)c2cc(C(=O)O)ccc12 [Example 144, 1-(2,6-dichlorobenzyl)-3-ethyl-1H-indazole-6-carboxylic acid]
26 nM	CCc1nn(Cc2c(Cl)cccc2Cl)c2cc(CCC(=O)O)ccc12 [Example 145, 3-[1-(2,6-dichlorobenzyl)-3-ethyl-1H-indazole-6-yl]propionic acid]
